The results in this text go back to PMC7778606, “Development of the phenylpyrazolo[3,4-d]pyrimidine-based, insulin-like growth factor receptor/Src/AXL-targeting small molecule kinase inhibitor” (Theranostics, 2021).

The subject of series [1] is H1944 and A549 NSCLC cells. As to the kind of experiment: Apoptosis (PARP cleavage, chromatin condensation, sub-G1 phase). The format is cell-based, human. The settings on record: LL6 2.5 µM; LDB = linsitinib 2 µM, dasatinib 50 nM, bemcentinib 100 nM. As to the method:
Before harvesting, the cells were stimulated with 10% FBS for 20 min. Total cell lysates were prepared with modified radioimmunoprecipitation assay lysis buffer (50 mM Tris-HCl [pH 7.4], 150 mM NaCl, 1 mM EDTA, 0.25% sodium deoxycholate, 1% Triton X-100, 100 mM NaF, 5 mM Na3VO4, 1 mM PMSF, 1 μg/mL aprotinin, 1 μg/mL leupeptin, and 1 μg/mL pepstatin). Equal amounts of protein (20 μg) were subjected to 8% SDS-PAGE and electrically transferred onto polyvinylidene difluoride membranes (Bio-Rad Laboratories, Hercules, CA, USA). Membranes were blocked with blocking buffer (3% BSA in Tris-buffered saline containing 0.1% Tween-20 [TBST]) for 1 h at room temperature. The membranes were incubated with primary antibodies diluted in 3% BSA in TBST (1:1,000) overnight at 4 °C, washed multiple times with TBST, and incubated with secondary antibodies diluted in 3% nonfat dry milk in TBST (1:5,000) for 1 h at room temperature. The membranes were washed multiple times with TBST and visualized using an enhanced chemiluminescence detection kit (Thermo Fisher Scientific). Densitometric analysis was performed using ImageJ software.

Series [2] in a line: MTT assay, viability of Wi38 human lung fibroblasts. The settings on record: human, Wi38 lung fibroblasts; Wi38, 10 μM; read-out: percentage of cell viability. It counts as cell-based. The protocol: (§1) Cells were seeded into 96-well plates at a density of 1-2 × 10^3 cells/well and incubated for 24 h. Cells were treated with vehicle or various concentrations of test compounds for two (PC9 and PC9/ER cells) or three (other cells) days. Cells were further incubated with MTT solution (final concentration of 500 μg/mL) for 4 h at 37 °C. The formazan products were dissolved in dimethyl sulfoxide (DMSO), and the absorbance was measured at 570 nm. The data are presented as a percentage of the control group.
On the technique in general: Tetrazolium dyes change colour on reduction, which living cells bring about.

Series [3] relates to Wi38 cells. The series is described as above. The format is cell-based. The settings on record: WI-38, 72 h; Wi38 human lung fibroblasts, MTT assay, three days; read-out: IC50 against the viability. As to the method: as §1
Series [4] concerns H1944 cells. As to the kind of experiment: MTT assay, viability of H1944 cells. It counts as cell-based. The settings on record: Homo sapiens, NCI-H1944, 72 h, three days, read-out: IC50 against the viability. The protocol:
as §1

Series [5] has as its system NSCLC cells. Description: Anchorage-independent (soft agar) colony formation assay. The format is cell-based, human. The settings on record: subset of NSCLC cells. The protocol:
Cells (2-3 × 10^3 cells/well) were mixed with sterile 1% agar solution (final concentration of 0.4%) and poured onto 1% base agar in 24-well plates. After solidification of the top agar, LL6 was diluted in complete medium and added to the agar. Cells embedded in the top agar were incubated for 10-14 days at 37 °C with 5% CO2. The LL6-containing medium was changed twice a week. After incubation, the colonies were stained with MTT solution, imaged, and counted using ImageJ software (National Institutes of Health, Bethesda, […], USA).

In series [6] the test system is H226Br cells. Description: MTT assay, viability of H226Br cells. The format is cell-based. The settings on record: Homo sapiens, 72 h, three days, read-out: IC50 against the viability. The protocol:
as §1

For series [7], the system named is 97 tested kinases. Description: Kinome-wide inhibition profiling (KINOMEscan, TREEspot). The settings on record: 10 µM, > 65% inhibition. The format is binding, human.
Series [8] deals with Kras^G12D/+-driven lung tumors. As to the kind of experiment: Mutant Kras-driven lung tumorigenesis model. It counts as in vivo, Kras^G12D/+ transgenic mice. As to the method: All animal experiments were performed according to protocols approved by the Seoul National University Institutional Animal Care and Use Committee. Mice were fed standard mouse chow and water ad libitum and housed in temperature- and humidity-controlled facilities with a 12-h light/12-h dark cycle. For xenograft experiments, H1944 and A549 cells (1×10^6 cells/spot, diluted in equal amounts of PBS and Matrigel) were subcutaneously injected into the right flank of 6-week-old non-obese diabetic-severe combined immunodeficiency (NOD/SCID) mice. After the tumor volume reached 50-150 mm^3, the mice were randomly grouped and treated with vehicle [10% DMSO in 60% polyethylene glycol (PEG) 400 solution] or LL6 (80 mg/kg) 6 days per week for 2 weeks. Tumor growth was determined by measuring the short and long diameters of the tumor with a caliper, and body weight was measured once or twice per week to monitor toxicity. Additionally, to evaluate the effect of LL6 on mutant Kras-driven lung tumorigenesis, 2-month-old Kras^G12D/+ transgenic mice were randomized and treated with vehicle or LL6 (80 mg/kg) for 8 weeks. The mice were euthanized, and tumor formation was evaluated and compared with that of the vehicle-treated control group. Microscopic evaluations of the H&E-stained lung tissue were also performed to measure mean tumor number (N) and volume (V) in a blinded fashion. The number and size of tumors were calculated in five sections uniformly distributed throughout each lung. In both animal experiments, the tumor volume and burden of each sample were calculated using the following formulas: Tumor volume (mm^3) = (short diameter)^2 × (long diameter) × 0.5; Tumor burden (mm^3) = number of tumors × the average of tumor volume.
Sections derived from formalin-fixed and paraffin-embedded murine lung tissues were deparaffinized by incubation overnight at 65 °C, followed by rehydration in sequential xylene and ethanol rinses. After incubation with hydrogen peroxide, the slides were washed with PBS and then incubated with 0.3% Triton X-100. The sections were incubated with blocking solution (Dako Protein Block, Dako, Glostrup, Denmark) for 30 min at room temperature after washing with PBS. The sections were further incubated with primary antibodies (pAXL, pIGF-1R, and pSrc, diluted at 1:200) overnight at 4 °C, washed with PBS several times, incubated with the corresponding biotinylated secondary antibodies (diluted at 1:500), and then washed with PBS multiple times. After adding avidin-biotin complexes (Vector Laboratories, Burlingame, CA, USA), the sections were visualized using diaminobenzidine detection reagent (Enzo Life Sciences, Farmingdale, NY, USA) and mounted with a mounting solution (Vector Laboratories).

The nature of series [9]: Water solubility. It counts as physicochemical.

A value given as a limit tells only on which side of the number the result lay.

By viability is commonly meant the share of living cells, or the viability signal relative to a control. Usually IC50 stands for the concentration needed to halve the response being measured. Turning to `Nc1ncnc2c1c(-c1ccc(Cl)cc1)nn2CCn1cc(COc2ccc(Nc3nccc(Nc4cnc5ccccc5c4)n3)cc2)nn1` [LL6], the “proapoptotic effects (PARP cleavage, chromatin condensation, sub-G1 phase)” value in series [1] is listed as “notably induced apoptosis”. Further, the viability at 3 days, 10 µM in series [2] is greater than 60%. Besides, the IC50 in series [3] was greater than 10 µM; in series [4], 1.02 µM; in series [6] it was 4.32 µM. In [5], the “colony formation, anchorage-independent” value was “significantly suppressed”. For the same compound, in series [7], the S-score stood at 0.12. Besides, the “tumor volume and burden” value in [8] (80 mg/kg for 8 weeks) is reported as “Substantial decreases”. The “lung tumor nodules (multiplicity)” value in [8] (80 mg/kg for 8 weeks, especially nodules > 1 mm^3) is given as “significantly decreased”. In series [8] (80 mg/kg for 8 weeks, vs vehicle), the body weight result is on record as “no detectable difference”. For the same compound, the “levels of pIGF-1R, pSrc, and pAXL in lung tumors” value in series [8] (immunohistochemistry, 80 mg/kg, vs vehicle) is “significantly decreased levels”. Also, the water solubility entry in series [9] was “poor”.
